In patent US8680108B2, “Substituted fused aryl and heteroaryl derivatives as PI3K inhibitors” (Incyte Corporation, priority 2009, dated 2014):
Read-outs that look alike come from different tables or passages of the source.

Legend:
PI3Kδ (p110δ/p85α) = target: T1, PI3Kδ (p110δ/p85α) (Homo sapiens, UniProt O00329); experiment: PI3Kδ scintillation proximity assay; assay type: biochemical
T1 construct: purchased Millipore (Bedford, Mass.)
Method in brief: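 Purified p110δ/p85α (4 nM) phosphorylated 20 μM diC8-PIP2 with 20 μM ATP plus [γ-33P]ATP in MOPS pH 6.7, MgCl2, DTT, CHAPS, 0.5% DMSO, 210 minutes at room temperature. Stopped with EDTA/ATP quench containing WGA SPA beads; scintillation counted. IC50 from percent control activity versus log inhibitor concentration.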

[1] = tested on: Pfeiffer cell line (diffuse large B cell lymphoma); experiment: Pfeiffer cell proliferation assay; assay type: cell-based
Experimental: Pfeiffer cell line (diffuse large B cell lymphoma) was purchased from ATCC (Manassas, Va.) and maintained in the culture medium recommended (RPMI and 10% FBS). To measure the anti-proliferation activity of the compounds, the Pfeiffer cells were plated with the culture medium (2×10^3 cells/well/per 200 μl) into 96-well ultra-low binding plates (Corning, Corning, N.Y.), in the presence or absence of a concentration range of test compounds. […]

[2] = Homo sapiens, Pfeiffer, first of two isolated isomers
[3] = Homo sapiens, Pfeiffer, second of two isolated isomers

T1 sequence (O00329 whole entry): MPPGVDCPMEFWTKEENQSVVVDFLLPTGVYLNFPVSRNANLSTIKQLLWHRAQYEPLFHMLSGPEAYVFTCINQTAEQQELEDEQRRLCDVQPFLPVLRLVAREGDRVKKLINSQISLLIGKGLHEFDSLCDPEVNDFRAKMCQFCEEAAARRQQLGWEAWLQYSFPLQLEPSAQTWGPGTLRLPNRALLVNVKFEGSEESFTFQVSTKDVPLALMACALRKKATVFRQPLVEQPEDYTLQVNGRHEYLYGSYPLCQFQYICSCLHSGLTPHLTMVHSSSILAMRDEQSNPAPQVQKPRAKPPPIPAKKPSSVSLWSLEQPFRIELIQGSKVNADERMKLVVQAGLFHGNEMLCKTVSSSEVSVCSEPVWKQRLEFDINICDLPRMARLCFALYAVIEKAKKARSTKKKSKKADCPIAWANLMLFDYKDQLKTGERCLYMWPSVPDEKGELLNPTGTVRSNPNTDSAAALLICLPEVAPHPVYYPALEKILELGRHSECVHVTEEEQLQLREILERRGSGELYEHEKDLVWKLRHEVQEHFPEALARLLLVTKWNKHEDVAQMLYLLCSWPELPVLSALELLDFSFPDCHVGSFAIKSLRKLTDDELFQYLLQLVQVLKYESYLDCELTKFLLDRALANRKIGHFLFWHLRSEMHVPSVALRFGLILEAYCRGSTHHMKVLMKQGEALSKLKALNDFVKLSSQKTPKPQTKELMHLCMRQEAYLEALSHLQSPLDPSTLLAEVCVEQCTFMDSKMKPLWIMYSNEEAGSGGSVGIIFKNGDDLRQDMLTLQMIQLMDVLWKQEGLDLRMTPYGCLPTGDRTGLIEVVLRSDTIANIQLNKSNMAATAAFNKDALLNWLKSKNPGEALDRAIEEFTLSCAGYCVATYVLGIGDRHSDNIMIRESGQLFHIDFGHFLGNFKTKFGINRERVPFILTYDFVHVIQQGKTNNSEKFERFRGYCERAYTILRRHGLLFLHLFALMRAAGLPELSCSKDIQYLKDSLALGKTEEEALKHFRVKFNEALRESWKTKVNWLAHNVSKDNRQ
T1 sequence (P27986 whole entry partner): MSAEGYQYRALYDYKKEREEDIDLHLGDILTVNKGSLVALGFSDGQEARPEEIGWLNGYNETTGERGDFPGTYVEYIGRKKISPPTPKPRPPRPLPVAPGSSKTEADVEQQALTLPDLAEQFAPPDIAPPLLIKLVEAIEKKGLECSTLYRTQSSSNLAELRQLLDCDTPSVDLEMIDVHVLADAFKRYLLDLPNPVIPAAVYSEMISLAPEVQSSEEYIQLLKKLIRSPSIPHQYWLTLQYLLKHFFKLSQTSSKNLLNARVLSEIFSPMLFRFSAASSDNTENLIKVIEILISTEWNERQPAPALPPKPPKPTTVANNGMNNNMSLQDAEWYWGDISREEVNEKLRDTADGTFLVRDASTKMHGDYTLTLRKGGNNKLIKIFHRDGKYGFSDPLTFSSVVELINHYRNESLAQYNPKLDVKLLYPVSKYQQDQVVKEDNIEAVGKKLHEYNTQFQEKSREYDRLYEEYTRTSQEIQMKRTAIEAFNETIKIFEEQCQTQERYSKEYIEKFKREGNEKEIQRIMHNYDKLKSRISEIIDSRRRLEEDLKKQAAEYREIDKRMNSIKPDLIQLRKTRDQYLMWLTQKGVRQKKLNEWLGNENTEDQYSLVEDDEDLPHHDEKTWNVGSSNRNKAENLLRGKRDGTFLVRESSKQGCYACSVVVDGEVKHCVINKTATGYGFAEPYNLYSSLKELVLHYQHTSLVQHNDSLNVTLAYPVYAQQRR

Compound | IC50 (PI3Kδ (p110δ/p85α)) | IC50 ([1]; [3H]-thymidine incorporation) | IC50 (PI3Kδ (p110δ/p85α); separated isomer, 1st peak) | IC50 (PI3Kδ (p110δ/p85α); separated isomer, 2nd peak) | IC50 [1, 2] | IC50 [1, 3]
Cc1cc(C(C)Nc2ncnc3[nH]cnc23)c(-c2cccc(F)c2)c2nnccc12 (single isomer, unassigned) [Example 36, N-{1-[8-(3-fluorophenyl)-5-methylcinnolin-7-yl]ethyl}-9H-purin-6-amine] | < 50 nM | < 50 nM |  |  |  | 
Cc1cc(C(C)Nc2ncnc3[nH]cnc23)c(-c2cccc(F)c2)c2nnccc12 (single isomer, unassigned) [Example 37, N-{1-[8-(3-fluorophenyl)-5-methylcinnolin-7-yl]ethyl}-9H-purin-6-amine] | 500 to 1000 nM | 500 to 1000 nM |  |  |  | 
CC(Nc1ncnc2[nH]cnc12)c1cc(Cl)c2cccnc2c1N1CCC[C@H](O)C1 (stereo partly drawn) [Example 48, (3S)-1-{5-Chloro-7-[1-(9H-purin-6-ylamino)ethyl]quinolin-8-yl}piperidin-3-ol] |  |  | < 50 nM | > 1000 nM | > 1000 nM | > 1000 nM
CC(Nc1ncnc2[nH]cnc12)c1cc(Cl)c2cccnc2c1N1CCCC(CO)C1 (centres unmarked) [Example 63, (1-{5-Chloro-7-[1-(9H-purin-6-ylamino)ethyl]quinolin-8-yl]piperidin-3-yl)methanol tris(trifluoroacetate)] |  |  | 100 to 250 nM | 100 to 250 nM | > 1000 nM | > 1000 nM
CC(C)C(=O)N[C@H]1CCN(c2c(C(C)Nc3ncnc4[nH]cnc34)cc(Cl)c3cccnc23)C1 (stereo partly drawn) [Example 78, N-((3S)-1-{5-Chloro-7-[1-(9H-purin-6-ylamino)ethyl]quinolin-8-yl}pyrrolidin-3-yl)-2-methylpropanamide tris(trifluoroacetate)] |  |  | > 1000 nM | < 50 nM |  | 500 to 1000 nM

Next, values leading:

IC50 (PI3Kδ (p110δ/p85α)) | IC50 ([1]; [3H]-thymidine incorporation) | IC50 (PI3Kδ (p110δ/p85α); separated isomer, 1st peak) | IC50 (PI3Kδ (p110δ/p85α); separated isomer, 2nd peak) | IC50 [1, 2] | IC50 [1, 3] | Compound
 |  | > 1000 nM | 100 to 250 nM |  | 250 to 500 nM | CC(Nc1ncnc2[nH]cnc12)c1cc(F)c2cccnc2c1N1CC[C@@H](O)C1 (stereo partly drawn) [Example 53, (3R)-1-{5-fluoro-7-[1-(9H-purin-6-ylamino)ethyl]quinolin-8-yl}pyrrolidin-3-ol]
 |  | 100 to 250 nM | 250 to 500 nM | 100 to 250 nM | 100 to 250 nM | COC1CCCN(c2c(C(C)Nc3ncnc4[nH]cnc34)cc(Cl)c3cccnc23)C1 (centres unmarked) [Example 67, N-{1-[5-Chloro-8-(3-methoxypiperidin-1-yl)quinolin-7-yl]ethyl}-9H-purin-6-amine tris(trifluoroacetate)]
 |  | 50 to 100 nM | < 50 nM | 100 to 250 nM | 50 to 100 nM | COC1CCN(c2c(C(C)Nc3ncnc4[nH]cnc34)cc(Cl)c3cccnc23)C1 (centres unmarked) [Example 68, N-{1-[5-Chloro-8-(3-methoxypyrrolidin-1-yl)quinolin-7-yl]ethyl}-9H-purin-6-amine tris(trifluoroacetate)]
> 1000 nM |  |  |  |  | 250 to 500 nM | CC(Nc1ncnc2[nH]cnc12)c1cc(Cl)c2cccnc2c1N1CCC(Oc2ccccc2)CC1 (centres unmarked) [Example 75, N-{1-[5-Chloro-8-(4-phenoxypiperidin-1yl)quinolin-7-yl]ethyl}-9H-purin-6-amine bis(trifluoroacetate)]
 |  | 50 to 100 nM | < 50 nM | 250 to 500 nM | 100 to 250 nM | COC(=O)N[C@H]1CCN(c2c(C(C)Nc3ncnc4[nH]cnc34)cc(Cl)c3cccnc23)C1 (stereo partly drawn) [Example 79, Methyl((3S)-1-{5-Chloro-7-[1-(9H-purin-6-ylamino)ethyl]quinolin-8-yl}pyrrolidin-3-yl)carbamate tris(trifluoroacetate)]
 |  | 250 to 500 nM | < 50 nM |  | 100 to 250 nM | CC(Nc1ncnc2[nH]cnc12)c1cc(Cl)c2cccnc2c1N1CC[C@H](NS(C)(=O)=O)C1 (stereo partly drawn) [Example 80, N-((3S)-1-{5-Chloro-7-[1-(9H-purin-6-ylamino)ethyl]quinolin-8-yl}pyrrolidin-3-yl)methanesulfonamide tris(trifluoroacetate)]
